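Cultured in 96-well plates, cells were exposed to test compound for 48 hours across five concentrations. GI50: concentration for 50% inhibition of growth. TGI: total growth inhibition.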
Key:
Assay in all cases: NCI anticancer screen, dose series, 48 h
HOP-62 NSCLC = test system: HOP-62 NSCLC
NCI/ADR-RES ovarian = test system: NCI/ADR-RES ovarian
786-0 renal = test system: 786-0 renal
HOP-92 NSCLC = test system: HOP-92 NSCLC
UACC-62 melanoma = test system: UACC-62 melanoma
UACC-257 melanoma = test system: UACC-257 melanoma
NCI-H23 lung = test system: NCI-H23 lung
KM12 colon = test system: KM12 colon
SR leukemia = test system: SR leukemia
IGROV1 ovarian = test system: IGROV1 ovarian

SMILES	GI50 (HOP-62 NSCLC) [µM]	TGI (HOP-62 NSCLC) [µM]	GI50 (NCI/ADR-RES ovarian) [µM]	TGI (NCI/ADR-RES ovarian) [µM]	GI50 (786-0 renal) [µM]	TGI (786-0 renal) [µM]	GI50 (HOP-92 NSCLC) [µM]	TGI (HOP-92 NSCLC) [µM]	GI50 (UACC-62 melanoma) [µM]	TGI (UACC-62 melanoma) [µM]	GI50 (UACC-257 melanoma) [µM]	TGI (UACC-257 melanoma) [µM]	GI50 (NCI-H23 lung) [µM]	TGI (NCI-H23 lung) [µM]	GI50 (KM12 colon) [µM]	TGI (KM12 colon) [µM]	GI50 (SR leukemia) [µM]	TGI (SR leukemia) [µM]	GI50 (IGROV1 ovarian) [µM]	TGI (IGROV1 ovarian) [µM]
Cc1c(C(=O)/C=C/c2ccc(O)cc2)nnn1-c1ccnc2c(C(F)(F)F)cccc12	67.7	> 100	13.9	> 100	> 100	> 100	34.5	> 100	18.7	> 100	4.4	22.9	15.2	> 100	8.92	> 100	2.29	9.86	21.9	> 100
Nc1cc(N)c2nc(-c3ccccc3)c(Nc3ccc(F)cc3)nc2c1	37.8	> 100	23.8	57.5	17.4	54.3	13.1	43.6	16.1	31.7	15.3	29	22.5	49.1	12	29.5	5.36	> 100	16.6	> 100
COc1cc2c(cc1OCCCCCOc1cc(-c3ccc(F)cc3)nc(C)n1)N=C[C@@H]1CCCN1C2=O	> 50.2	> 79.4	> 100	> 100	> 44.9	> 67.5	0.376	6.7	> 38.1	> 56.2	> 100	> 100	> 100	> 100	> 48.3	> 73.6	–	> 57.9	> 27.8	> 49.6
O=C1C(NCCO)=C(N2CC2)C(=O)C(NCCO)=C1N1CC1	–	66.7	–	> 100	–	> 60.9	–	> 100	–	99.5	–	> 100	–	74.6	–	> 100	–	51.6	–	> 100
COc1ccc(/C=C/C(=O)c2ccc(Nc3ncnc4ccccc34)cc2)cc1OC	9.87	66.5	3.82	> 100	7.96	> 100	2.05	52.7	10.7	27.9	20.3	> 100	4.69	> 100	3.45	> 100	2.04	6.36	20.7	> 100
O=C(CNC(=O)c1cccc2ccccc12)Nc1ccccc1Oc1cccc(O)c1	8.22	> 25	7.94	> 25	9.93	> 25	> 25	> 25	1.62	> 25	> 25	> 25	16	> 25	2.18	> 25	1.05	> 25	9.96	> 25
COC(=O)Nc1ccc2ccc3c(NC(=O)OC)ccc4ccc1c2c43 (tested in a mixture with another compound)	7.91	25.4	4.59	19.2	12.2	41.2	1.62	14.1	5.83	> 50	21.8	> 50	11.5	> 50	3.4	> 50	2.51	> 50	7.98	> 50
CCCCCC(=O)N1c2ccccc2NC2=C(C(=O)CC(c3ccc(OC)c(OC)c3)C2)C1c1ccc(C(F)(F)F)cc1 (centres undefined)	> 100	> 100	> 100	> 100	> 100	> 100	12.2	> 100	97.1	> 100	> 100	> 100	> 100	> 100	> 100	> 100	> 100	> 100	> 100	> 100
O=C(Nc1ccccc1Cl)c1cnc2ccc(C3CCNCC3)cn12	16.8	> 100	39.2	> 100	3.18	> 100	0.703	7.28	14.2	56.7	16.2	37.1	74.5	> 100	> 85.4	> 100	37.2	> 100	0.626	14.6
C[C@]12CC[C@H]3[C@@H](CCC4=CC(=O)CC[C@@H]43)[C@@H]1CC[C@@H]2OC1(O)C(=O)c2ccccc2C1=O	–	> 100	–	> 100	–	83.5	–	> 100	–	33.6	–	> 100	–	62.5	–	> 100	–	> 100	–	> 100
Cc1ccc(NC(=O)c2ccnc(C(F)(F)F)c2)cc1-c1cc(OCCO)nc(N2CCOCC2)c1	1.28	34.5	2.63	11.5	6.29	38.2	0.196	4.78	0.315	4.54	0.6	12.4	0.916	12.5	2.28	22.1	0.613	> 100	1.61	40
Cc1sc2ncnc(Sc3nc4ccccc4[nH]3)c2c1C	18.7	52	29.5	> 100	37.3	> 100	13.8	63.8	17.3	> 100	24.7	98.9	30.4	> 100	27.2	> 100	10.6	23	33.2	> 100

Reference: PubChem BioAssay (NCI)
